Reference: ChEMBL document CHEMBL1156829 (Proc Natl Acad Sci U S A, 2008)

Experiments:
[1] = system: Plasmodium falciparum; experiment: NOVARTIS: Inhibition of Plasmodium falciparum 3D7 (drug-susceptible) proliferation in erythrocyte-based infection assay; type: functional, organism-based; settings: Plasmodium falciparum, 3D7
[2] = system: Plasmodium falciparum; experiment: NOVARTIS: Inhibition of Plasmodium falciparum W2 (drug-resistant) proliferation in erythrocyte-based infection assay; type: functional, organism-based; settings: Plasmodium falciparum, W2; read-out: EC50
[3] = NOVARTIS: Cytotoxicity against human hepatocellular carcinoma cell line (Huh7); type: toxicity, cell-based, Huh-7; settings: Huh7 cells (hepatocellular carcinoma cell line)

Row | Compound | EC50 [1] | EC50 [2] | CC50 [3]
1 | C=CC1CN2CCC1CC2C(O)c1ccnc2ccc(OC)cc12 (stereo not drawn) | 11.8 nM | 54.2 nM | 82500 nM
2 | COc1ccc(NC(=O)C2c3ccccc3C(=O)N(CC(C)C)C2c2cccs2)cc1OC (stereo not drawn) | 76 nM | 68.8 nM | > 100000 nM
3 | CC[C@]1(C2OC(C3O[C@](O)(CO)[C@@H](C)C[C@H]3C)C[C@H]2C)CCC([C@@]2(C)CC[C@@]3(C[C@@H](O)[C@H](C)C([C@H](C)[C@H](OC)C(C)C(=O)O)O3)O2)O1 (stereo partly drawn) | 2.79 nM | < 0.868 nM | 1290 nM
4 | CC1=C(C(=O)OC(C)C)C(c2ccccc2Cl)C2=C(CC(c3ccccc3)CC2=O)N1 (stereo not drawn) | 297 nM | 38.4 nM | > 64200 nM
5 | Cc1ccc(C2Sc3ccccc3NC3=C2C(=O)c2ccccc23)cc1 (stereo not drawn) | 249 nM | 46.4 nM | 68600 nM
6 | CCCCCc1ccc(OCCOCC[n+]2ccccc2)c(CCCCC)c1 | 7.08 nM | 6.85 nM | > 10000 nM
7 | CC1(C)C2CCC(C2)C1(C)NC(=S)NN=Cc1ccccn1 (stereo not drawn) | 34.8 nM | 38.2 nM | 54700 nM
8 | Cc1cc(Nc2ccc(OCc3ccccc3)cc2)nc2cc(O)ccc12 | 73.6 nM | 11.9 nM | 17200 nM
9 | COC(=O)C1=C(C)NC2=C(C(=O)CC(c3ccc(OC)c(OC)c3)C2)C1c1cccs1 (stereo not drawn) | 130 nM | 70.9 nM | > 100000 nM
10 | COC(=O)C1=C(C)NC(=Cc2cc(C)n(-c3cc(C)ccc3OC)c2C)C1=O | 34.8 nM | 70.4 nM | > 100000 nM
11 | Cc1ccn2c(NC(C)(C)CC(C)(C)C)c(-c3ccccc3OC(=O)C(C)(C)C)nc2c1 | 520 nM | < 7.9 nM | > 11100 nM
12 | CCOC(=O)C(=O)N1c2ccccc2-c2c(ssc2=S)C1(C)C | 91.6 nM | 73.5 nM | > 100000 nM
13 | CCOC(=O)C1=C(C)NC2=C(C(=O)CC(c3ccc(OC)c(OC)c3)C2)C1c1cccc(Cl)c1 (stereo not drawn) | 88.2 nM | 55.6 nM | > 74600 nM
14 | COc1ccc(C2CC(=O)C3=C(C2)NC(C)=C(C(=O)OC2CCCC2)C3c2ccccc2OC)cc1OC (stereo not drawn) | 212 nM | 72.8 nM | > 100000 nM
15 | CCOC(=O)C1=C(C)NC2=C(C(=O)C(C(=O)OCC)C(c3cccc(OC)c3)C2)C1c1ccc([N+](=O)[O-])cc1 (stereo not drawn) | 54.2 nM | 37.2 nM | > 54600 nM
16 | NC(Cc1ccccc1)C(=O)N1CCn2c(nc(-c3ccccc3)c2Nc2ccc3c(c2)OCO3)C1 (stereo not drawn) | 30.4 nM | 29.1 nM | 42800 nM
17 | CC(C)c1nc(N2CCN(C(=O)Nc3ccccc3)CC2)c(C#N)c2c1COC(C)(C)C2 | 53.8 nM | 67.7 nM | > 100000 nM
18 | CCCCCCCC(=O)N(C)CCCNc1ccnc2cc(Cl)ccc12 | 242 nM | < 5.87 nM | > 9690 nM
19 | C/C=C/C(C(=O)NCCCC)N1C(=O)c2cc(NC(C)=O)ccc2NC(=O)[C@@H]1C (stereo partly drawn) | 199 nM | 4.57 nM | 7590 nM
20 | COCCOC(=O)C1=C(C)NC2=C(C(=O)CC(c3ccc(OC)cc3)C2)C1c1ccc(F)cc1 (stereo not drawn) | 161 nM | 59 nM | > 100000 nM
21 | CCOC(=O)C1=C(C)NC2=C(C(=O)CC(c3ccc(OC)cc3)C2)C1c1ccsc1 (stereo not drawn) | 302 nM | 62 nM | > 100000 nM
22 | Cc1ccc2c(Cl)c(C(=O)N3CC(C)OC(C)C3)sc2c1 (stereo not drawn) | 102 nM | 72 nM | > 100000 nM
23 | COc1ccc(C2CC(=O)C3=C(C2)NC(C)=C(C(=O)OC2CCCCC2)C3c2ccc([N+](=O)[O-])cc2)cc1OC (stereo not drawn) | 194 nM | 61.7 nM | > 100000 nM
24 | COc1cccc(C(=O)Oc2ccccc2-c2nc3cc(C)ccn3c2NC(C)(C)CC(C)(C)C)c1 | 986 nM | 6.15 nM | > 10000 nM
25 | O=C(Cc1ccccc1)NCc1ccc(Nc2c(-c3cccnc3)nc3ccccn23)cc1 | 34.2 nM | < 6.13 nM | > 10000 nM
26 | CCOC(=O)C1=C(C)NC2=C(C(=O)C(C(=O)OCC)C(c3ccccc3OC)C2)C1c1ccc(OC)c(OC)c1 (stereo not drawn) | 83.1 nM | 74.4 nM | > 100000 nM

Row | Compound | EC50 [1] | EC50 [2] | CC50 [3]
27 | COc1ccc(CCN2C(=S)NC3c4cccc(OC)c4OC2(C)C3C(=O)Nc2ccc(C)cc2C)cc1OC (stereo not drawn) | 320 nM | 68.7 nM | > 100000 nM
28 | Cc1noc(C)c1S(=O)(=O)N(Cc1ccccc1)CC(O)CN1CCC(NC(=O)c2cccc3ccccc23)C1 (stereo not drawn) | 127 nM | < 6.52 nM | > 10000 nM
29 | Cc1ccn2c(NC(C)(C)CC(C)(C)C)c(-c3ccccc3OC(=O)c3ccccc3F)nc2c1 | 951 nM | 6.35 nM | > 10000 nM
30 | CC1(C)C2CCC1(C)C(NCc1ccccc1O)C2 (stereo not drawn) | 107 nM | 31.8 nM | 48600 nM
31 | CCOC(=O)C1=C(C)NC2=C(C(=O)CC(c3ccc(OC)c(OC)c3)C2)C1c1cccc(Br)c1 (stereo not drawn) | 171 nM | 65.9 nM | > 100000 nM
32 | COc1cc(COc2cc(N)c(Cl)cc2C(=O)CCC2CCN(CCNS(C)(=O)=O)CC2)cc(OC)c1 | > 788 nM | < 8.52 nM | > 13000 nM
33 | COc1cccc(-c2cc(C(=O)Nc3cc(Cl)ccc3O)on2)c1 | 906 nM | 65 nM | > 100000 nM
34 | COc1ccc(C2CC(=O)C3=C(C2)NC(=O)CC3c2ccc([N+](=O)[O-])cc2)cc1OC (stereo not drawn) | 346 nM | 64.9 nM | > 100000 nM
35 | CCOC(=O)C1=C(C)NC2=C(C(=O)CC(c3ccc(OC)c(OC)c3)C2)C1c1ccc([N+](=O)[O-])cc1 (stereo not drawn) | 180 nM | 64 nM | > 100000 nM
36 | COc1ccc(CNCc2cc(-c3ccnc4cc(Cl)ccc34)ccc2O)c(OC)c1 | 951 nM | 38.3 nM | 59200 nM
37 | CCOC(=O)C1=C(C)NC2=C(C(=O)CC(C)(C)C2)C1c1ccc(Cl)cc1 (stereo not drawn) | 116 nM | 67.6 nM | > 100000 nM
38 | CC1CC(C)CN(C(=O)c2sc3ccccc3c2Cl)C1 (stereo not drawn) | 35.7 nM | 64.5 nM | > 100000 nM
39 | COC(=O)C1=C(C)NC(=Cc2cc(C)n(-c3ccccc3C(F)(F)F)c2C)C1=O | 21.8 nM | 71 nM | > 100000 nM
40 | CC(C)(C)NCC(O)Cn1c2ccc(Br)cc2c2cc(Br)ccc21 (stereo not drawn) | 213 nM | 14.1 nM | 20700 nM
41 | c1ccc(Cc2cc[n+](Cc3ccccc3)cc2)cc1 | 144 nM | 72.5 nM | > 100000 nM
42 | CCOC(=O)c1c(C)nc2c(c1C)c(=O)oc1ccccc12 | > 12500 nM | 70.5 nM | > 100000 nM
43 | COc1ccc(C(=O)Oc2ccccc2-c2nc3ccccn3c2NC(C)(C)CC(C)(C)C)cc1 | > 1600 nM | 7.51 nM | > 10000 nM
44 | CCOC(=O)C1=C(C)NC2=C(C(=O)C(C(=O)OC)C(C)C2)C1c1cc(Br)c(OC)c(OCC)c1 (stereo not drawn) | 700 nM | 72.7 nM | > 100000 nM
45 | CCN1c2ccc([N+](=O)[O-])cc2N(CC)C1(C)c1ccccc1 (stereo not drawn) | 204 nM | 39.7 nM | 67600 nM
46 | COC(=O)c1c(-c2c(Cl)cccc2Cl)noc1/C=C/Nc1ccccc1 | 290 nM | < 6.76 nM | > 10000 nM
47 | CCC(C)(C)n1nnnc1C(c1cc2ccc(C)cc2[nH]c1=O)N1CCN(c2ccccc2)CC1 (stereo not drawn) | 453 nM | 61.4 nM | > 100000 nM
48 | CC(=O)N1c2ccc([N+](=O)[O-])cc2C(C)(c2ccccc2)CC1(C)C (stereo not drawn) | 1100 nM | 61.2 nM | > 100000 nM
49 | COc1cc(-c2cc(C(F)(F)F)n3ncc(C(=O)Nc4cc(C)ccc4O)c3n2)cc(OC)c1OC | 180 nM | 70 nM | > 100000 nM
50 | COC(=O)C1=C(C)NC2=C(C(=O)CC(c3ccc(OC)c(OC)c3)C2)C1c1ccccc1Br (stereo not drawn) | 136 nM | 73.1 nM | > 100000 nM
51 | CCCCCCCSc1nsc(NC(=O)CCC)n1 | > 1310 nM | < 6.51 nM | > 10000 nM
